Data from patent EP0307279A2, “Use of (5-amino-2-(4-methyl-1-piperidinyl)phenyl)-(4-chlorophenyl)methanone as an antiviral agent” (FOURNIER INNOVATION ET SYNERGIE, priority 1987, dated 1989).

Assays:
Format in all cases: cell-based
virus HIV 1 [1] = experiment: Protocol 1: pre-treatment of human lymphocytes before HIV 1 infection, reverse transcriptase activity in culture supernatant
Experimental: (§1) Pour chacun des trois protocoles qui suivent, on a préparé une solution mère de (5-amino-2-(4-méthyl-1-pipéridinyl)phényl)-(4-chlorophényl)-méthanone à 100 mg/l dans de l'eau physiologique contenant 9 g/l de chlorure de sodium et acidifiée à pH=3 par de l'acide chlorhydrique. La solution mère est ensuite diluée dans un milieu RPMI 1640 jusqu'à la concentration désirée. La solution ainsi obtenue est stérilisée par filtration sur membrane "MILLIPORE" ayant un diamètre moyen de pores de 0,22 m.
(§2) A partir de cellules T lymphoblastoïdes (lignée CEM) infectées par un virus HIV et donc susceptibles de produire ledit virus HIV, on recueille ce dernier par des moyens appropriés à partir d'un surnageant de culture desdites cellules.
(§3) Les cellules utilisées sont des lymphocytes de sujets normaux HIV négatifs isolés à partir du sang périphérique par gradient de Ficoll puis stimulés pendant trois jours par de la phytohémagglutinine p (en abrégé pHAp) avant leur utilisation.
Les lymphocytes sont ensuite cultivés dans le milieu RPMI 1640 contenant 10 % de sérum de veau foetal, 10 % d'interleukine II, 2 g/ml de polybrène, 1 % de glutamine, 1 % d'antibiotiques et une dilution au 1/2500 de sérum anti-interféron humain. […]

virus HIV 1 [2] = experiment: Protocol 2: treatment of human lymphocytes during HIV 1 adsorption, reverse transcriptase activity in culture supernatant
Experimental: as §1, §2, §3
(§4) Les lymphocytes sont ensuite cultivés dans le milieu RPMI 1640 contenant 10 % de sérum de veau foetal, 10 % d'interleukine II, 2 g/ml de polybrène, 1 % de glutamine, 1 % d'antibiotiques et une dilution au 1/2500 de sérum anti-interféron humain.
(§5) La production du virus HIV par des cellules T humaines traitées ou non par le produit a été régulièrement suivie par mesure de l'activité transcriptase inverse, représentative de la réplication virale, et présente dans 1 ml de surnageant de culture. On concentre 100 fois 1 ml de surnageant par ultracentrifugation puis on détermine l'activité enzymatique de cet échantillon dans 50 l d'un mélange réactionnel contenant 50 mM de tampon tris (hydroxyméthylaminométhane) de pH=7,9, 20 mM de KCl, 5 mM de MgCl₂, 1 mM de 1,4-dithiothréitol, 0,05 unité de densité optique par ml d'acide polyadénylique (5′), 0,05 unité de densité optique par ml d'acide oligodéoxythymidylique 12-18, 5 Ci de ³HTTP et 0,1 % de Triton X 100. Après une heure d'incubation à 37°C, les produits acido-insolubles sont précipités par de l'acide trichloracétique à 20 %, filtrés sur "MILLIPORE" 0,45 m, puis la radioactivité contenue dans ces produits de réaction est mesurée à l'aide d'un compteur à scintillation Kontron.
(§6) Les figures 1 à 3 qui représentent l'activité transcriptase inverse (A exprimée en cpm/ml) en fonction du temps (t exprimé en nombre de jours), comprennent chacune quatre courbes : T représentant l'activité transcriptase inverse dans la culture témoin. C₁ représentant l'activité transcriptase inverse pour la culture traitée par une dose de 0,1 g/ml de produit. C₂ représentant l'activité transcriptase inverse pour la culture traitée par une dose de 0,05 g/ml de produit, et C₃ représentant l'activité transcriptase inverse pour la culture traitée par une dose de 0,01 g/ml de produit. […]

virus HIV 1 [3] = experiment: Protocol 3: treatment of human lymphocytes after HIV 1 adsorption (post-treatment), reverse transcriptase activity in culture supernatant
Experimental: as §1, §2, §3, §4, §5, §6

SMILES: CC1CCN(c2ccc(N)cc2C(=O)c2ccc(Cl)cc2)CC1 [produit, (5-amino-2-(4-méthyl-1-pipéridinyl)phényl)-(4-chlorophényl)-méthanone]
- inhibition du pouvoir infectieux du virus HIV 1 (activité transcriptase inverse) (virus HIV 1 [1]; pre-treatment 18 h before infection, human lymphocytes, whatever the dose (0,1, 0,05, 0,01 µg/ml), figure 1): inhibition partielle
- retard dans l'apparition du pic de transcriptase inverse (virus HIV 1 [1]; pre-treatment, whatever the dose, versus untreated control culture): retard important
- inhibition du pouvoir infectieux du virus HIV 1 (virus HIV 1 [2]; during viral adsorption, 0,1 µg/ml (curve C1)): maximale
- inhibition du pouvoir infectieux du virus HIV 1 (virus HIV 1 [2]; during viral adsorption, 0,01 µg/ml (curve C3)): partielle
- inhibition du pouvoir infectieux du virus HIV 1 (virus HIV 1 [2]; during viral adsorption, 0,05 µg/ml (curve C2)): partielle
- inhibition du pouvoir infectieux du virus HIV 1 pour les cellules T humaines (virus HIV 1 [2]; product present during viral adsorption (1 h, 37°C), various concentrations (curves C1 to C3), figure 2): inhibition très significative
- inhibition de l'infection virale (virus HIV 1 [3]; post-treatment for three passages after adsorption, 0,1 µg/ml (curve C1), figure 3): très significative
- inhibition de l'infection virale (virus HIV 1 [3]; post-treatment, 0,01 µg/ml (curve C3)): partielle
- inhibition de l'infection virale (virus HIV 1 [3]; post-treatment, 0,05 µg/ml (curve C2)): partielle
- rapport des pics des courbes T et C₁ (activité transcriptase inverse) (virus HIV 1 [3]; post-treatment, 0,1 g/ml, control peak / treated peak): ~10
